Where a SMILES comes first, the peptide text is derived from it.

Usually IC50 stands for the concentration at which inhibition is half-maximal. Higher therefore signals weaker potency in that assay.

In this assay the target is HLA A*3001 (Homo sapiens, UniProt P04439, D140H/D185E/E176W/F33S/G80R/H175R/K168Q/R138E/R41S). Nature of the assay: biochemical. Format: binding.
Sequence of HLA A*3001 (P04439 25-365 limits assumed, stated change not applied): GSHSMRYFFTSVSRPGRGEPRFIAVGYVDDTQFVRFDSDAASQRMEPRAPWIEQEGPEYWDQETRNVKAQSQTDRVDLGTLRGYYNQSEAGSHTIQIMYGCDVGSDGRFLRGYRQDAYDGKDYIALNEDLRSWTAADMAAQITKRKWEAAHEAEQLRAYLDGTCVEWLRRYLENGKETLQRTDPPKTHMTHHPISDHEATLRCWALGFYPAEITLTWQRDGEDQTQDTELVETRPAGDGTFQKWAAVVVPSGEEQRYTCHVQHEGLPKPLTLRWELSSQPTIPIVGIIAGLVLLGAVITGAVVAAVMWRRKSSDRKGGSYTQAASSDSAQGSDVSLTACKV
In turn, `CC[C@H](C)[C@H](NC(=O)[C@@H]1CCCN1C(=O)[C@H](CC(C)C)NC(=O)[C@H](CCCNC(=N)N)NC(=O)[C@@H](NC(=O)[C@@H](N)CCSC)[C@@H](C)O)C(=O)N[C@@H](CC(C)C)C(=O)N[C@@H](CC(C)C)C(=O)N[C@@H](CC(C)C)C(=O)O` [3102.0104] (H-MTRLPILLL-OH) showed an IC50 of 0.65 nM.
`CC(C)C[C@H](NC(=O)[C@@H](N)CCCCN)C(=O)N[C@@H](CCCNC(=N)N)C(=O)N[C@@H](CS)C(=O)N[C@@H](CCCNC(=N)N)C(=O)N[C@@H](CC(N)=O)C(=O)N[C@H](C(=O)N[C@@H](CCC(=O)O)C(=O)N[C@@H](C)C(=O)O)[C@@H](C)O` [3102.0105] (H-KLRCRNTEA-OH) displayed a half-inhibitory concentration (IC50) of 14 nM.
In turn, `CC[C@H](C)[C@H](NC(=O)[C@@H](N)CCCNC(=N)N)C(=O)N[C@@H](CCCNC(=N)N)C(=O)N[C@@H](CCC(N)=O)C(=O)N[C@@H](CCC(N)=O)C(=O)N[C@@H](CC(C)C)C(=O)N1CCC[C@H]1C(=O)N[C@@H](CC(C)C)C(=O)N[C@@H](Cc1ccc(O)cc1)C(=O)O` [3102.0107] (H-RIRQQLPLY-OH) showed an IC50 of 13 nM.
`CC(C)C[C@H](NC(=O)[C@H](CC(N)=O)NC(=O)[C@H](CCC(N)=O)NC(=O)[C@H](CC(N)=O)NC(=O)[C@H](CO)NC(=O)[C@H](CC(C)C)NC(=O)[C@H](Cc1c[nH]cn1)NC(=O)[C@@H](NC(=O)[C@@H](N)Cc1c[nH]cn1)[C@@H](C)O)C(=O)O` [3102.0108] (H-HTHLSNQNL-OH) gave a 50% inhibitory concentration (IC50) of 5.8 nM. This IC50 is about 2.2-fold lower than that of the compound before.
The value for `CC[C@H](C)[C@H](NC(=O)[C@H](CC(C)C)NC(=O)[C@H](CCCNC(=N)N)NC(=O)[C@H](CCC(N)=O)NC(=O)[C@H](CCCNC(=N)N)NC(=O)[C@H](Cc1ccc(O)cc1)NC(=O)[C@@H](N)CCCNC(=N)N)C(=O)N[C@@H](CO)C(=O)N[C@@H](CC(C)C)C(=O)O` [3102.0110] (H-RYRQRLISL-OH) was 5.2 nM; that for `CC[C@H](C)[C@H](NC(=O)[C@H](Cc1ccc(O)cc1)NC(=O)[C@H](CO)NC(=O)[C@H](CC(C)C)NC(=O)[C@H](Cc1ccccc1)NC(=O)[C@H](Cc1c[nH]cn1)NC(=O)[C@H](CCCNC(=N)N)NC(=O)[C@@H](NC(=O)[C@@H](N)CCCNC(=N)N)[C@@H](C)O)C(=O)O` [3102.0111] (H-RTRHFLSYI-OH) was 0.24 nM.
In turn, `CC[C@H](C)[C@H](NC(=O)[C@H](CC(N)=O)NC(=O)[C@H](CCCNC(=N)N)NC(=O)[C@@H](NC(=O)[C@H](CCCNC(=N)N)NC(=O)[C@H](CO)NC(=O)CN)C(C)C)C(=O)N[C@H](C(=O)N[C@@H](C)C(=O)O)[C@@H](C)CC` [3102.0112] (H-GSRVRNIIA-OH) came in with an IC50 of 8.9 nM.
The compound `NCCCC[C@H](NC(=O)[C@H](CS)NC(=O)[C@@H]1CCCN1C(=O)[C@H](CC(N)=O)NC(=O)[C@H](CCC(=O)O)NC(=O)[C@H](Cc1ccc(O)cc1)NC(=O)[C@H](CCCCN)NC(=O)[C@H](Cc1c[nH]c2ccccc12)NC(=O)[C@@H](N)CCCCN)C(=O)O` [3102.0113] (H-KWKYENPCK-OH) registered an IC50 of 15 nM. Against the preceding compound, the IC50 is about 1.7-fold higher.
The value for `CC(C)[C@H](NC(=O)[C@H](CO)NC(=O)[C@H](C)NC(=O)[C@H](Cc1c[nH]cn1)NC(=O)[C@H](CC(N)=O)NC(=O)[C@H](Cc1ccccc1)NC(=O)[C@H](C)NC(=O)[C@@H](N)CCCCN)C(=O)N[C@@H](CCCCN)C(=O)O` [3102.0118] (H-KAFNHASVK-OH) was 35 nM; that for `CSCC[C@H](NC(=O)[C@H](CCCNC(=N)N)NC(=O)CNC(=O)[C@H](CO)NC(=O)[C@H](CO)NC(=O)[C@@H](NC(=O)[C@@H](N)CCCCN)[C@@H](C)O)C(=O)N1CCC[C@H]1C(=O)N[C@H](C(=O)O)C(C)C` [3102.0119] (H-KTSSGRMPV-OH) was 2 nM.
Turning to `C[C@H](NC(=O)[C@H](Cc1ccc(O)cc1)NC(=O)[C@H](CCCNC(=N)N)NC(=O)[C@H](Cc1ccc(O)cc1)NC(=O)[C@@H](NC(=O)[C@@H](N)CCCCN)[C@@H](C)O)C(=O)N[C@@H](Cc1ccccc1)C(=O)N[C@@H](CO)C(=O)N[C@@H](CCCCN)C(=O)O` [3102.0120] (H-KTYRYAFSK-OH), the half-inhibitory concentration (IC50) worked out at 22 nM.
Under `CSCC[C@H](NC(=O)[C@@H](N)CCCCN)C(=O)N[C@@H](CCCNC(=N)N)C(=O)N[C@@H](CC(=O)O)C(=O)N[C@H](C(=O)N[C@@H](CC(C)C)C(=O)N1CCC[C@H]1C(=O)N[C@@H](C)C(=O)N[C@@H](CCCCN)C(=O)O)[C@@H](C)O` [3102.0121] (H-KMRDTLPAK-OH) stands 1.6 nM; under `CC[C@H](C)[C@H](NC(=O)[C@H](Cc1ccc(O)cc1)NC(=O)[C@@H](NC(=O)[C@@H](N)CCCCN)C(C)C)C(=O)N[C@@H](CC(N)=O)C(=O)N[C@@H](Cc1c[nH]cn1)C(=O)N1CCC[C@H]1C(=O)N[C@@H](Cc1ccccc1)C(=O)N[C@@H](CCSC)C(=O)O` [3102.0124] (H-KVYINHPFM-OH), 0.52 nM; under `CC[C@H](C)[C@H](N)C(=O)N[C@H](C(=O)N[C@@H](CCCNC(=N)N)C(=O)N[C@@H](CC(=O)O)C(=O)N[C@@H](CO)C(=O)N[C@@H](CCSC)C(=O)N[C@@H](Cc1c[nH]c2ccccc12)C(=O)N[C@@H](Cc1ccc(O)cc1)C(=O)N[C@H](C(=O)O)[C@@H](C)CC)C(C)C` [3102.0125] (H-IVRDSMWYI-OH), 20 nM.
Consider `CC(C)C[C@H](NC(=O)[C@H](Cc1c[nH]cn1)NC(=O)[C@H](CC(N)=O)NC(=O)[C@H](CC(N)=O)NC(=O)[C@H](CCCNC(=N)N)NC(=O)[C@H](CO)NC(=O)[C@@H](N)[C@@H](C)O)C(=O)N1CCC[C@H]1C(=O)N[C@@H](C)C(=O)O` [3102.0126] (H-TSRNNHLPA-OH), for which the IC50 was 15 nM.
The compound `CC[C@H](C)[C@H](NC(=O)[C@H](Cc1ccccc1)NC(=O)[C@@H]1CCCN1C(=O)[C@H](C)NC(=O)[C@H](CS)NC(=O)[C@H](Cc1c[nH]c2ccccc12)NC(=O)[C@H](CCCCN)NC(=O)[C@@H](NC(=O)[C@@H](N)CCSC)[C@@H](C)O)C(=O)O` [3102.0130] (H-MTKWCAPFI-OH) came in with an IC50 of 0.17 nM. This IC50 is about 88-fold lower than that of the compound before.
The compound `CC(C)C[C@H](NC(=O)[C@H](Cc1c[nH]cn1)NC(=O)[C@H](CC(N)=O)NC(=O)[C@H](CS)NC(=O)[C@H](CCCNC(=N)N)NC(=O)[C@H](C)NC(=O)[C@@H](N)CCCCN)C(=O)N[C@H](C(=O)N[C@@H](CCCCN)C(=O)O)[C@@H](C)O` [3102.0131] (H-KARCNHLTK-OH) showed an IC50 of 0.21 nM.
The value for `CC[C@H](C)[C@H](NC(=O)[C@@H](NC(=O)[C@H](Cc1ccccc1)NC(=O)[C@H](CCSC)NC(=O)[C@@H](NC(=O)[C@@H](N)CCCCN)C(C)C)C(C)C)C(=O)N[C@@H](CCCNC(=N)N)C(=O)N[C@@H](Cc1ccccc1)C(=O)N[C@@H](CCCCN)C(=O)O` [3102.0133] (H-KVMFVIRFK-OH) was 0.6 nM.
Turning to `CSCC[C@H](NC(=O)[C@H](Cc1c[nH]cn1)NC(=O)[C@H](CC(N)=O)NC(=O)[C@H](CCCNC(=N)N)NC(=O)[C@H](Cc1ccccc1)NC(=O)[C@@H](N)CCCNC(=N)N)C(=O)N[C@@H](CS)C(=O)N[C@@H](CC(C)C)C(=O)N[C@H](C(=O)O)C(C)C` [3102.0134] (H-RFRNHMCLV-OH), inhibition was half-maximal at 31 nM (IC50).
Turning to `CC(C)[C@H](NC(=O)[C@@H](N)CO)C(=O)N[C@@H](CCCCN)C(=O)N[C@@H](CS)C(=O)N[C@@H](CCC(N)=O)C(=O)N[C@@H](CO)C(=O)N1CCC[C@H]1C(=O)N1CCC[C@H]1C(=O)N[C@@H](CO)C(=O)O` [3102.0135] (H-SVKCQSPPS-OH), the midpoint of inhibition, the IC50, lay at 17 nM.
The value for `CC[C@H](C)[C@H](NC(=O)[C@@H]1CCCN1C(=O)CNC(=O)[C@H](CCSC)NC(=O)[C@H](CCCCN)NC(=O)[C@H](CCC(N)=O)NC(=O)[C@@H](N)CCCCN)C(=O)N[C@@H](Cc1ccc(O)cc1)C(=O)N[C@@H](C)C(=O)O` [3102.0136] (H-KQKMGPIYA-OH) was 22 nM.
The value for `CC[C@H](C)[C@H](NC(=O)[C@H](CCCCN)NC(=O)[C@H](CC(N)=O)NC(=O)[C@H](CC(N)=O)NC(=O)[C@H](CCCCN)NC(=O)[C@@H](NC(=O)[C@@H](N)CCSC)C(C)C)C(=O)N[C@@H](CCC(N)=O)C(=O)N[C@@H](CCCCN)C(=O)O` [3102.0137] (H-MVKNNKIQK-OH) was 12 nM; that for `CC[C@H](C)[C@H](NC(=O)[C@H](Cc1ccccc1)NC(=O)[C@H](CCCCN)NC(=O)[C@H](Cc1ccc(O)cc1)NC(=O)[C@H](Cc1ccccc1)NC(=O)[C@H](C)NC(=O)[C@H](CCCCN)NC(=O)[C@@H](NC(=O)[C@@H](N)Cc1c[nH]cn1)C(C)C)C(=O)O` [3102.0138] (H-HVKAFYKFI-OH) was 0.35 nM.
`CC[C@H](C)[C@H](NC(=O)[C@H](C)NC(=O)[C@H](CCCNC(=N)N)NC(=O)[C@@H](NC(=O)[C@@H](N)CCCNC(=N)N)[C@@H](C)O)C(=O)N[C@@H](CC(N)=O)C(=O)N[C@@H](CCCCN)C(=O)N[C@@H](Cc1ccc(O)cc1)C(=O)N[C@@H](CO)C(=O)O` [3102.0141] (H-RTRAINKYS-OH) came in with an IC50 of 13 nM.
For the compound `CC(C)[C@H](NC(=O)[C@H](Cc1ccc(O)cc1)NC(=O)[C@H](CO)NC(=O)[C@H](Cc1ccc(O)cc1)NC(=O)[C@@H](NC(=O)[C@@H]1CCCN1C(=O)[C@H](CCCCN)NC(=O)[C@H](Cc1ccc(O)cc1)NC(=O)[C@@H](N)CCCCN)C(C)C)C(=O)O` [3102.0143] (H-KYKPVYSYV-OH), the IC50 was found to be 0.74 nM.
Under `CC(C)[C@H](NC(=O)[C@H](CCCCN)NC(=O)[C@H](Cc1ccccc1)NC(=O)[C@@H](NC(=O)[C@H](CC(=O)O)NC(=O)[C@H](Cc1ccc(O)cc1)NC(=O)[C@H](CCCNC(=N)N)NC(=O)[C@@H](NC(=O)[C@@H](N)CCCNC(=N)N)[C@@H](C)O)[C@@H](C)O)C(=O)O` [3102.0144] (H-RTRYDTFKV-OH) stands 0.2 nM; under `CC(C)C[C@H](NC(=O)[C@H](Cc1ccccc1)NC(=O)[C@H](CO)NC(=O)[C@H](CCCCN)NC(=O)[C@H](CC(C)C)NC(=O)[C@H](CCC(N)=O)NC(=O)[C@H](CCCCN)NC(=O)[C@H](CO)NC(=O)[C@@H](N)CCCCN)C(=O)O` [3102.0146] (H-KSKQLKSFL-OH), 13 nM; under `CC[C@H](C)[C@H](NC(=O)[C@H](Cc1ccc(O)cc1)NC(=O)[C@H](CC(C)C)NC(=O)[C@@H]1CCCN1C(=O)[C@H](CC(=O)O)NC(=O)[C@H](CCCNC(=N)N)NC(=O)[C@@H](NC(=O)[C@@H](N)CCSC)[C@@H](C)O)C(=O)N[C@@H](Cc1ccc(O)cc1)C(=O)O` [3102.0147] (H-MTRDPLYIY-OH), 17 nM.
